Experimental data: ChEMBL document CHEMBL1201862, “PubChem BioAssay data set” (2004)
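Five concentrations, 48 hours, 96-well plates. GI50: concentration for 50% inhibition of growth.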 The source made the active and inactive calls. Cut-off read from the data, not from the text of the source: active = GI50 up to about 1.1 µM and inactive = higher.

Experiments:
Experiment in all cases: inhibition of tumour cell growth, NCI panel, 48 h
[1] = system: SNB-75
[2] = system: ACHN
[3] = system: MCF7
[4] = system: SF-268
[5] = system: HT-29
[6] = system: UACC-257
[7] = system: U-251
[8] = system: OVCAR-8
[9] = system: NCI-H460
[10] = system: DU-145
[11] = system: SK-MEL-5
[12] = system: SR
[13] = system: RXF 393
[14] = system: NCI/ADR-RES
[15] = system: IGROV-1
[16] = system: NCI-H226
[17] = system: M14
[18] = system: UO-31
[19] = system: HOP-92
[20] = system: 786-0
[21] = system: BT-549
[22] = system: EKVX
[23] = system: CCRF-CEM
[24] = system: K562
[25] = system: T47D
[26] = system: TK-10
[27] = system: SK-OV-3
[28] = system: SNB-19
[29] = system: KM12
[30] = system: COLO 205
[31] = system: HCT-116
[32] = system: PC-3
[33] = system: SK-MEL-28
[34] = system: HCC 2998
[35] = system: UACC-62
[36] = system: MDA-MB-231
[37] = system: SK-MEL-2
[38] = system: LOX IMVI
[39] = system: SF-295
[40] = system: RPMI-8226
[41] = system: SF-539
[42] = system: MDA-MB-435
[43] = system: Hs-578T
[44] = system: A498
[45] = system: NCI-H23
[46] = system: SW-620
[47] = system: OVCAR-4
[48] = system: HL-60
[49] = system: HOP-62
[50] = system: HCT-15
[51] = system: CAKI-1
[52] = system: OVCAR-5
[53] = system: MDA-N
[54] = system: SN12C
[55] = system: A549
[56] = system: MOLT-4
[57] = system: NCI-H522
[58] = system: Malme-3M

In the case of CCOC(=O)C(C)c1nc2cc3cccnc3c(Cl)c2[nH]c1=O (stereo unspecified), the GI50 [1] was > 100 µM (inactive), the GI50 [2] was 94.6 µM (inactive) and the GI50 [3] was > 100 µM (inactive). For the same molecule, the GI50 [4] was 86.1 µM (inactive), the GI50 [5] was > 100 µM (inactive) and the GI50 [6] was > 100 µM (inactive). The GI50 [7] was > 100 µM (inactive), the GI50 [8] was > 100 µM (inactive) and the GI50 [9] was 32.4 µM (inactive). The GI50 [10] was 20 µM (inactive), the GI50 [11] was > 100 µM (inactive) and the GI50 [12] was 73.6 µM (inactive). The GI50 [13] was > 100 µM (inactive), the GI50 [14] was > 100 µM (inactive) and the GI50 [15] was 52.6 µM (inactive). For the same molecule, the GI50 [16] was > 100 µM (inactive), the GI50 [17] was > 100 µM (inactive) and the GI50 [18] was > 100 µM (inactive). For the same molecule, the GI50 [19] was > 100 µM (inactive), the GI50 [20] was > 100 µM (inactive) and the GI50 [21] was > 100 µM (inactive). For the same molecule, the GI50 [22] was > 100 µM (inactive), the GI50 [23] was > 100 µM (inactive) and the GI50 [24] was > 100 µM (inactive). For the same molecule, the GI50 [25] was 23.4 µM (inactive), the GI50 [26] was > 100 µM (inactive) and the GI50 [27] was > 100 µM (inactive). The GI50 [28] was > 100 µM (inactive), the GI50 [29] was > 100 µM (inactive) and the GI50 [30] was > 100 µM (inactive). The GI50 [31] was > 100 µM (inactive), the GI50 [32] was > 100 µM (inactive) and the GI50 [33] was > 100 µM (inactive). For the same molecule, the GI50 [34] was 85.3 µM (inactive), the GI50 [35] was > 100 µM (inactive) and the GI50 [36] was 82 µM (inactive). For the same molecule, the GI50 [37] was 86.9 µM (inactive), the GI50 [38] was > 100 µM (inactive) and the GI50 [39] was > 100 µM (inactive). The GI50 [40] was 25.9 µM (inactive), the GI50 [41] was > 100 µM (inactive) and the GI50 [42] was > 100 µM (inactive). For the same molecule, the GI50 [43] was 54.1 µM (inactive), the GI50 [44] was > 100 µM (inactive) and the GI50 [45] was > 100 µM (inactive). For the same molecule, the GI50 [46] was > 100 µM (inactive), the GI50 [47] was > 100 µM (inactive) and the GI50 [48] was > 100 µM (inactive). For the same molecule, the GI50 [49] was > 100 µM (inactive), the GI50 [50] was over 100 µM and the GI50 [51] was > 100 µM (inactive).

In the case of O=C1c2ccccc2CC12CCC1(CC2)OCCO1, the GI50 [1] was > 100 µM (inactive), the GI50 [2] was > 100 µM (inactive) and the GI50 [3] was > 100 µM (inactive). The GI50 [4] was > 100 µM (inactive), the GI50 [5] was > 100 µM (inactive) and the GI50 [6] was > 100 µM (inactive). The GI50 [52] was > 100 µM (inactive), the GI50 [53] was > 100 µM (inactive) and the GI50 [7] was > 100 µM (inactive). For the same molecule, the GI50 [8] was > 100 µM (inactive), the GI50 [9] was > 100 µM (inactive) and the GI50 [10] was > 100 µM (inactive). For the same molecule, the GI50 [11] was > 10 µM (inactive), the GI50 [12] was > 100 µM (inactive) and the GI50 [13] was > 100 µM (inactive). For the same molecule, the GI50 [14] was > 100 µM (inactive), the GI50 [15] was > 100 µM (inactive) and the GI50 [16] was > 100 µM (inactive). For the same molecule, the GI50 [17] was > 100 µM (inactive), the GI50 [18] was > 100 µM (inactive) and the GI50 [20] was > 100 µM (inactive). For the same molecule, the GI50 [21] was > 100 µM (inactive), the GI50 [54] was > 100 µM (inactive) and the GI50 [22] was > 100 µM (inactive). For the same molecule, the GI50 [23] was > 100 µM (inactive), the GI50 [24] was > 100 µM (inactive) and the GI50 [25] was > 100 µM (inactive). The GI50 [26] was > 100 µM (inactive), the GI50 [27] was > 100 µM (inactive) and the GI50 [28] was > 100 µM (inactive). For the same molecule, the GI50 [29] was > 100 µM (inactive), the GI50 [55] was > 100 µM (inactive) and the GI50 [30] was > 100 µM (inactive). The GI50 [31] was > 100 µM (inactive), the GI50 [32] was > 100 µM (inactive) and the GI50 [33] was > 100 µM (inactive). For the same molecule, the GI50 [34] was > 100 µM (inactive), the GI50 [35] was > 100 µM (inactive) and the GI50 [36] was > 100 µM (inactive). The GI50 [37] was > 100 µM (inactive), the GI50 [38] was > 100 µM (inactive) and the GI50 [39] was > 100 µM (inactive). For the same molecule, the GI50 [40] was > 100 µM (inactive), the GI50 [56] was > 100 µM (inactive) and the GI50 [57] was > 100 µM (inactive). The GI50 [41] was > 100 µM (inactive), the GI50 [43] was > 100 µM (inactive) and the GI50 [45] was > 100 µM (inactive). The GI50 [46] was > 100 µM (inactive), the GI50 [47] was > 100 µM (inactive) and the GI50 [48] was > 100 µM (inactive). The GI50 [49] was > 100 µM (inactive), the GI50 [58] was 97.9 µM (inactive) and the GI50 [50] was over 100 µM. The GI50 [51] was > 100 µM (inactive).
